For 5 compounds, T/C results are on record in PubChem BioAssay AID256 (DTP/NCI, 2004).

The structures appear in SMILES notation. Values joined by “and” are separate entries in the source; they are usually repeats but may differ in a detail not shown here. Equal values may be shown once. Toxic doses and inconclusive results are not listed.

The assay deals with CD2F1 mice, L1210 leukemia ip, survival T/C. As to the kind of experiment: NCI In Vivo Anticancer Drug Screen. Data for tumor model L1210 Leukemia (intraperitoneal) in CD2F1 (CDF1) mice. Conditions: higher = longer survival. In a few lines:
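Transplantable tumor in mice; compound-treated vs vehicle-treated groups. Read-out = treated/control ratio of the measured endpoint.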

The mark [1] stands for this setting: endpoint: mean survival time, dose: 100.0 mg/kg/injection, schedule: Q01DX001 (ip), vehicle: saline with Tween-80.
The mark [2] stands for this setting: endpoint: mean survival time, dose: 75.0 mg/kg/injection, schedule: Q01DX001 (ip), vehicle: saline.
Where [3] appears, read: endpoint: mean survival time, dose: 150.0 mg/kg/injection, schedule: Q01DX001 (ip), vehicle: saline.
[4] abbreviates: endpoint: mean survival time, dose: 300.0 mg/kg/injection, schedule: Q01DX001 (ip), vehicle: saline.

Take `O=C1NC2(CCCCC2)C(=O)N1CCN(CCCl)CCCl`: the T/C runs as follows: (endpoint: median survival time, dose: 0.5 mg/kg/injection, schedule: Q03HX024 (ip), vehicle: Klucel (hydroxypropylcellulose) (HPC)) 98 % of control; (endpoint: median survival time, dose: 1.0 mg/kg/injection, schedule: Q01DX009 (ip), vehicle: Klucel (hydroxypropylcellulose) (HPC)) 101 % of control; (endpoint: median survival time, dose: 1.0 mg/kg/injection, schedule: Q01DX009 (sc), vehicle: Klucel (hydroxypropylcellulose) (HPC)) 98 % of control; (endpoint: median survival time, dose: 1.0 mg/kg/injection, schedule: Q03HX016 (ip), vehicle: Klucel (hydroxypropylcellulose) (HPC)) 96 % of control; (endpoint: median survival time, dose: 1.0 mg/kg/injection, schedule: Q03HX024 (ip), vehicle: Klucel (hydroxypropylcellulose) (HPC)) 98 % of control; (endpoint: median survival time, dose: 2.0 mg/kg/injection, schedule: Q01DX009 (ip), vehicle: Klucel (hydroxypropylcellulose) (HPC)) 101 % of control. Besides, the T/C by setting is: (endpoint: median survival time, dose: 2.0 mg/kg/injection, schedule: Q01DX009 (sc), vehicle: Klucel (hydroxypropylcellulose) (HPC)) 101 % of control; (endpoint: median survival time, dose: 2.0 mg/kg/injection, schedule: Q03HX008 (ip), vehicle: Klucel (hydroxypropylcellulose) (HPC)) 110 % of control; (endpoint: median survival time, dose: 2.0 mg/kg/injection, schedule: Q03HX016 (ip), vehicle: Klucel (hydroxypropylcellulose) (HPC)) 104 % of control; (endpoint: median survival time, dose: 2.0 mg/kg/injection, schedule: Q03HX024 (ip), vehicle: Klucel (hydroxypropylcellulose) (HPC)) 106 % of control; (endpoint: median survival time, dose: 4.0 mg/kg/injection, schedule: Q01DX009 (ip), vehicle: Klucel (hydroxypropylcellulose) (HPC)) 107 % of control; (endpoint: median survival time, dose: 4.0 mg/kg/injection, schedule: Q01DX009 (oral), vehicle: Klucel (hydroxypropylcellulose) (HPC)) 123 % of control. For the same compound, the T/C was 103 % of control (endpoint: median survival time, dose: 4.0 mg/kg/injection, schedule: Q01DX009 (sc), vehicle: Klucel (hydroxypropylcellulose) (HPC)); 106 % of control (endpoint: median survival time, dose: 4.0 mg/kg/injection, schedule: Q03HX008 (ip), vehicle: Klucel (hydroxypropylcellulose) (HPC)); 103 % of control (endpoint: median survival time, dose: 4.0 mg/kg/injection, schedule: Q03HX016 (ip), vehicle: Klucel (hydroxypropylcellulose) (HPC)); 109 % of control (endpoint: median survival time, dose: 4.0 mg/kg/injection, schedule: Q03HX024 (ip), vehicle: Klucel (hydroxypropylcellulose) (HPC)); 100 % of control (endpoint: median survival time, dose: 4.0 mg/kg/injection, schedule: Q04DX003 (ip), vehicle: Klucel (hydroxypropylcellulose) (HPC)); 153 % of control (endpoint: median survival time, dose: 6.0 mg/kg/injection, schedule: Q01DX009 (ip), vehicle: Klucel (hydroxypropylcellulose) (HPC)). Further, the T/C is 106 % of control (endpoint: median survival time, dose: 8.0 mg/kg/injection, schedule: Q01DX009 (ip), vehicle: Klucel (hydroxypropylcellulose) (HPC)); 115 % of control (endpoint: median survival time, dose: 8.0 mg/kg/injection, schedule: Q01DX009 (oral), vehicle: Klucel (hydroxypropylcellulose) (HPC)); 114 % of control (endpoint: median survival time, dose: 8.0 mg/kg/injection, schedule: Q01DX009 (sc), vehicle: Klucel (hydroxypropylcellulose) (HPC)); 115 % of control (endpoint: median survival time, dose: 8.0 mg/kg/injection, schedule: Q03HX008 (ip), vehicle: Klucel (hydroxypropylcellulose) (HPC)); 111 % of control (endpoint: median survival time, dose: 8.0 mg/kg/injection, schedule: Q03HX016 (ip), vehicle: Klucel (hydroxypropylcellulose) (HPC)); 122 % of control (endpoint: median survival time, dose: 8.0 mg/kg/injection, schedule: Q03HX024 (ip), vehicle: Klucel (hydroxypropylcellulose) (HPC)). The T/C is, setting by setting: (endpoint: median survival time, dose: 8.0 mg/kg/injection, schedule: Q04DX003 (ip), vehicle: Klucel (hydroxypropylcellulose) (HPC)) 103 % of control; (endpoint: median survival time, dose: 8.0 mg/kg/injection, schedule: Q08DX002 (ip), vehicle: Klucel (hydroxypropylcellulose) (HPC)) 106 % of control; (endpoint: median survival time, dose: 9.0 mg/kg/injection, schedule: Q01DX009 (ip), vehicle: Klucel (hydroxypropylcellulose) (HPC)) 157 % of control and 164 % of control; (endpoint: median survival time, dose: 13.0 mg/kg/injection, schedule: Q01DX009 (ip), vehicle: Klucel (hydroxypropylcellulose) (HPC)) 164 % of control and 176 % of control; (endpoint: median survival time, dose: 16.0 mg/kg/injection, schedule: Q01DX001 (ip), vehicle: Klucel (hydroxypropylcellulose) (HPC)) 116 % of control; (endpoint: median survival time, dose: 16.0 mg/kg/injection, schedule: Q01DX001 (sc), vehicle: Klucel (hydroxypropylcellulose) (HPC)) 92 % of control. Also, the T/C (endpoint: median survival time, dose: 16.0 mg/kg/injection, schedule: Q01DX009 (ip), vehicle: Klucel (hydroxypropylcellulose) (HPC)) was 112 % of control; the T/C (endpoint: median survival time, dose: 16.0 mg/kg/injection, schedule: Q01DX009 (oral), vehicle: Klucel (hydroxypropylcellulose) (HPC)) was 112 % of control; the T/C (endpoint: median survival time, dose: 16.0 mg/kg/injection, schedule: Q01DX009 (sc), vehicle: Klucel (hydroxypropylcellulose) (HPC)) is 107 % of control; the T/C (endpoint: median survival time, dose: 16.0 mg/kg/injection, schedule: Q03HX008 (ip), vehicle: Klucel (hydroxypropylcellulose) (HPC)) was 122 % of control; the T/C (endpoint: median survival time, dose: 16.0 mg/kg/injection, schedule: Q04DX003 (ip), vehicle: Klucel (hydroxypropylcellulose) (HPC)) is 113 % of control; the T/C (endpoint: median survival time, dose: 16.0 mg/kg/injection, schedule: Q08DX002 (ip), vehicle: Klucel (hydroxypropylcellulose) (HPC)) was 109 % of control. Besides, the T/C is, setting by setting: (endpoint: median survival time, dose: 32.0 mg/kg/injection, schedule: Q01DX001 (ip), vehicle: Klucel (hydroxypropylcellulose) (HPC)) 122 % of control; (endpoint: median survival time, dose: 32.0 mg/kg/injection, schedule: Q01DX001 (oral), vehicle: Klucel (hydroxypropylcellulose) (HPC)) 100 % of control; (endpoint: median survival time, dose: 32.0 mg/kg/injection, schedule: Q01DX001 (sc), vehicle: Klucel (hydroxypropylcellulose) (HPC)) 101 % of control; (endpoint: median survival time, dose: 32.0 mg/kg/injection, schedule: Q01DX009 (oral), vehicle: Klucel (hydroxypropylcellulose) (HPC)) 123 % of control; (endpoint: median survival time, dose: 32.0 mg/kg/injection, schedule: Q01DX009 (sc), vehicle: Klucel (hydroxypropylcellulose) (HPC)) 106 % of control; (endpoint: median survival time, dose: 32.0 mg/kg/injection, schedule: Q04DX003 (ip), vehicle: Klucel (hydroxypropylcellulose) (HPC)) 114 % of control. For the same compound, the T/C by setting is: (endpoint: median survival time, dose: 32.0 mg/kg/injection, schedule: Q08DX002 (ip), vehicle: Klucel (hydroxypropylcellulose) (HPC)) 114 % of control; (endpoint: median survival time, dose: 64.0 mg/kg/injection, schedule: Q01DX001 (ip), vehicle: Klucel (hydroxypropylcellulose) (HPC)) 117 % of control; (endpoint: median survival time, dose: 64.0 mg/kg/injection, schedule: Q01DX001 (oral), vehicle: Klucel (hydroxypropylcellulose) (HPC)) 101 % of control; (endpoint: median survival time, dose: 64.0 mg/kg/injection, schedule: Q01DX001 (sc), vehicle: Klucel (hydroxypropylcellulose) (HPC)) 102 % of control; (endpoint: median survival time, dose: 64.0 mg/kg/injection, schedule: Q01DX009 (oral), vehicle: Klucel (hydroxypropylcellulose) (HPC)) 124 % of control; (endpoint: median survival time, dose: 64.0 mg/kg/injection, schedule: Q08DX002 (ip), vehicle: Klucel (hydroxypropylcellulose) (HPC)) 119 % of control. In addition, the T/C by setting is: (endpoint: median survival time, dose: 128.0 mg/kg/injection, schedule: Q01DX001 (oral), vehicle: Klucel (hydroxypropylcellulose) (HPC)) 104 % of control; (endpoint: median survival time, dose: 128.0 mg/kg/injection, schedule: Q01DX001 (sc), vehicle: Klucel (hydroxypropylcellulose) (HPC)) 105 % of control; (endpoint: median survival time, dose: 128.0 mg/kg/injection, schedule: Q08DX002 (ip), vehicle: Klucel (hydroxypropylcellulose) (HPC)) 110 % of control; (endpoint: median survival time, dose: 256.0 mg/kg/injection, schedule: Q01DX001 (ip), vehicle: Klucel (hydroxypropylcellulose) (HPC)) 116 % of control; (endpoint: median survival time, dose: 256.0 mg/kg/injection, schedule: Q01DX001 (oral), vehicle: Klucel (hydroxypropylcellulose) (HPC)) 107 % of control; (endpoint: median survival time, dose: 256.0 mg/kg/injection, schedule: Q01DX001 (sc), vehicle: Klucel (hydroxypropylcellulose) (HPC)) 104 % of control. In addition, under “endpoint: median survival time, dose: 512.0 mg/kg/injection, schedule: Q01DX001 (oral), vehicle: Klucel (hydroxypropylcellulose) (HPC)”, the T/C was 107 % of control.

Take `CC1CC(C)(C)N=C(Cc2ccccc2)O1` (stereo not given): the T/C under setting [1] is 101 % of control; the T/C (endpoint: mean survival time, dose: 200.0 mg/kg/injection, schedule: Q01DX001 (ip), vehicle: saline with Tween-80) is 93 % of control; the T/C (endpoint: mean survival time, dose: 400.0 mg/kg/injection, schedule: Q01DX001 (ip), vehicle: saline with Tween-80) was 96 % of control.

As to `CC(=O)C(N=Nc1cccc2c1C(=O)c1ccccc1C2=O)C(=O)Nc1ccccc1C` (stereo not given), the T/C is, setting by setting: under setting [2], 98 % of control; under setting [3], 93 % of control; under setting [4], 96 % of control.

In the case of `Nc1nc(N)c(-c2ccc(Cl)cc2)c(CBr)n1`, the T/C is 95 % of control (endpoint: mean survival time, dose: 6.25 mg/kg/injection, schedule: Q01DX001 (ip), vehicle: saline); 98 % of control (endpoint: mean survival time, dose: 12.5 mg/kg/injection, schedule: Q01DX001 (ip), vehicle: saline); 106 % of control (endpoint: mean survival time, dose: 25.0 mg/kg/injection, schedule: Q01DX001 (ip), vehicle: saline with Tween-80); 98 % of control (endpoint: mean survival time, dose: 25.0 mg/kg/injection, schedule: Q01DX001 (ip), vehicle: saline); 95 % of control (endpoint: mean survival time, dose: 50.0 mg/kg/injection, schedule: Q01DX001 (ip), vehicle: saline with Tween-80); 102 % of control and 110 % of control under setting [1].

Consider `O=C(Nc1cccc(Cl)c1)c1ccc(C(=O)Nc2cccc(Cl)c2)cc1`, for which the T/C under setting [2] is 100 % of control, the T/C under setting [3] is 98 % of control and the T/C under setting [4] is 102 % of control.
